Results taken from US11111238B2, “Coumarin derivatives, processes for their preparation and uses thereof for the treatment of cancer” (Lead Discovery Center GmbH, priority 2017, dated 2021).

Assays:
[1] = system: human DLD-1 colon carcinoma xenograft; test: Therapeutic effect on human DLD-1 colon carcinoma xenograft in nude mice; conditions: 30 mg/kg p.o. QD × 28 days, positive control
Procedure: DLD-1 colon carcinoma cells (5×10^6 cells in 100 μL of PBS/Matrigel), isolated during exponential growth phase from in vitro cell culture, were transplanted s.c. into each female BALB/c nude mouse at day 0. Mice were kept under strictly controlled and standardized barrier conditions in IVC.
Sorafenib) (Nexavar®, which is an approved multi-kinase inhibitor/cytostatic from Bayer A G, was used as a positive control. Body weight and tumor volume (TV) were monitored two to three times per week.
Mice of groups 3, 4 and 5 were treated again at the end of the study period and blood samples were taken to generate plasma 1 h prior and 1 h post treatment. In addition, tumor and tissue samples were isolated, divided into two parts and snap frozen in liquid nitrogen. Mice of groups 1-5 were sacrificed at day 39. Gross autopsy was performed from all mice.

SW48 (colon) = test: CellTiter GLO viability assay, SW48; assay type: cell-based; conditions: Homo sapiens, 144 h, read-out: IC50 (μM) incubation time 144 h
Procedure: (§1) The CellTiter-Glo Luminescent Cell Viability Assay (Promega) is a homogeneous method of determining the number of viable cells in culture. It is based on quantification of ATP, indicating the presence of metabolically active cells.
(§2) Cells were seeded on day 1 at cell numbers that assure assay linearity and optimal signal intensity. After incubation for 3 h in humidified chambers at 37° C./5% CO2 compounds/DMSO were added at different concentrations. […] Cells treated with the compound vehicle DMSO were used as positive controls and cells treated with 10 μM Staurosporine served as negative controls. […] Thereon, mixture and assay plates were equilibrated at room temperature for 20 min. Equal volumes of the reagent-medium-mixture was added to the volume of culture medium present in each well.
(§3) The plates were mixed at ˜200 rpm for 2 minutes on an orbital shaker. The microplates were then incubated at room temperature for 10 minutes for stabilization of the luminescent signal. Following incubation the luminescence is recorded on a Victor microplate reader (Perkin Elmer) using 200 ms integration time. The data were then analyzed with Excel using the XLFIT Plugin (dose response Fit 205) for IC50-determination. As quality control the Z′-factor was calculated from 16 positive and negative control values. Only assay results showing a Z′-factor≥0.5 were used for further analysis.

HRT-18 (colon) = test: CellTiter GLO viability assay, HRT-18; assay type: cell-based; conditions: Homo sapiens, 144 h, read-out: IC50 (μM) incubation time 144 h
Procedure: as §1, §2, §3

[2] = system: mitochondrial transcription (7S RNA) in HeLa cells; test: Quantitative real time-PCR assay of inhibition of mitochondrial transcription (cellular qPCR assay IMT); assay type: cell-based; conditions: Homo sapiens, 4 h compound incubation, qRT-PCR according to Example 5, activity class
Method in brief: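 HeLa cells were exposed 4 h to compound dilution series or DMSO. Mitochondrial 7S RNA, with POLRMT for nuclear transcription, was measured by TaqMan qRT-PCR, normalised to TBP. Biological triplicates were analysed by ΔΔCt and expressed as Rq % (2^-ΔΔCt).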

CA-46 (lymphoma) = test: CellTiter GLO viability assay, CA-46; assay type: cell-based; conditions: Homo sapiens, CA46, 144 h, read-out: IC50 (μM) incubation time 144 h
Procedure: as §1
as §2, with “Cells were seeded on day 1 at cell numbers that assure assay linearity and optimal signal intensity.” left out
as §3

NCI-H596 (lung) = test: CellTiter GLO viability assay, NCI-H596; assay type: cell-based; conditions: Homo sapiens, 144 h, read-out: IC50 (μM) incubation time 144 h
Procedure: as §1, §2, §3

SW403 (colon) = test: CellTiter GLO viability assay, SW403; assay type: cell-based; conditions: Homo sapiens, SW-403, 144 h, read-out: IC50 (μM) incubation time 144 h
Procedure: as §1
as §2, with “Cells were seeded on day 1 at cell numbers that assure assay linearity and optimal signal intensity.” left out
as §3

HEC-59 (endometrial) = test: CellTiter GLO viability assay, HEC-59; assay type: cell-based; conditions: 144 h, read-out: IC50 (μM) incubation time 144 h
Procedure: as §1, §2, §3

NCI-H23 (lung) = test: CellTiter GLO viability assay, NCI-H23; assay type: cell-based; conditions: for IC50: Homo sapiens, NCI-H23 (lung), 144 h, read-out: IC50 (μM) incubation time 144 h; for sensitivity of the cell line (in words): NCl-H23
Procedure: as §1, §2, §3

NCI-H1299 (lung) = test: CellTiter GLO viability assay, NCI-H1299; assay type: cell-based; conditions: Homo sapiens, 144 h, read-out: IC50 (μM) incubation time 144 h
Procedure: as §1, §2, §3

SW948 (colon) = test: CellTiter GLO viability assay, SW948; assay type: cell-based; conditions: Homo sapiens, 144 h, read-out: IC50 (μM) incubation time 144 h
Procedure: as §1, §2, §3

[3] = target: mitochondrial RNA-polymerase (POLRMT) (Mus musculus, UniProt Q8BKF1); test: Homogeneous TR-FRET assay for mitochondrial transcription activity; assay type: biochemical; conditions: homogeneous TR-FRET assay according to Example 4; activity class
mitochondrial RNA-polymerase (POLRMT), sequence (Q8BKF1 42-1207): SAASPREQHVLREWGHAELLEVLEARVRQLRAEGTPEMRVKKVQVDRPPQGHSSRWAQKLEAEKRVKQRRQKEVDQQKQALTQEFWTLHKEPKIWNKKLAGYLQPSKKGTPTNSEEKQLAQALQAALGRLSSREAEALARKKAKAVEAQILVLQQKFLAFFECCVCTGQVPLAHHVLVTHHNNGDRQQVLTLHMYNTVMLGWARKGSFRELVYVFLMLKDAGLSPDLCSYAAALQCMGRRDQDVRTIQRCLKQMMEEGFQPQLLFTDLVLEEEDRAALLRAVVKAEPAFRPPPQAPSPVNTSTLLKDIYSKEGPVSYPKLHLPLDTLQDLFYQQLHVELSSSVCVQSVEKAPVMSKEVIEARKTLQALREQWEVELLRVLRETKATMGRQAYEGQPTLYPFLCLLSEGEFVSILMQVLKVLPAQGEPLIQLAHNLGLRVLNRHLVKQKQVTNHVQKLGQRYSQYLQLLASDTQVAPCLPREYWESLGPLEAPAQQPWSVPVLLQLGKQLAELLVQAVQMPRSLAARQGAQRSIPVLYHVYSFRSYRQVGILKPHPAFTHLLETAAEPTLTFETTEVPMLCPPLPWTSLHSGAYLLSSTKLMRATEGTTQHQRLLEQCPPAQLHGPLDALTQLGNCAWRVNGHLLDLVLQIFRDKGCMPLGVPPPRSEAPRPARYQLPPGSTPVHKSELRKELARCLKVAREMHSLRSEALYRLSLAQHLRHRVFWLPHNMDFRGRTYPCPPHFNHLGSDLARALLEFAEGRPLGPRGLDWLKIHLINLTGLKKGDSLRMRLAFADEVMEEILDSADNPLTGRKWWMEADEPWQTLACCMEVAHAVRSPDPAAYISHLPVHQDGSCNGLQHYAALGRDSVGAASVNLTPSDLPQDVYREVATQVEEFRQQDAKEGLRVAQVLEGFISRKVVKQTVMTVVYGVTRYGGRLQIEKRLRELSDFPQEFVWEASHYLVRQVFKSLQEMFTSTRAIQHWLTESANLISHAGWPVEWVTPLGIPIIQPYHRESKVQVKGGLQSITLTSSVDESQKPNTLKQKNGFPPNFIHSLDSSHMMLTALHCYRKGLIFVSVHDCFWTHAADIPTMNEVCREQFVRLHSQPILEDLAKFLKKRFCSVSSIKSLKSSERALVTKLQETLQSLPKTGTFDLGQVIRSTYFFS
Method in brief: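 TR-FRET read-out (340 nm excitation, 665 nm emission) of a 407 bp transcript captured by Eu-streptavidin/biotin donor and ATTO647N acceptor DNA probes after EDTA stop. Transcription ran 2 h at RT with 500 μM […], mouse POLRMT/TFAM/TFB2M and LSP-plasmid template, after 10 min compound preincubation (10 μM or dilution series).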

| IC50 [2] [nM] | IC50 [3] [nM] | Structure (SMILES) | also measured |
| --- | --- | --- | --- |
| < 10 | < 20 | Cc1ccccc1-c1cc(=O)oc2cc(OC(C)C(=O)N(C)C)ccc12 (stereo not shown) [Compound 38, N,N-dimethyl-2-[4-(o-tolyl)-2-oxo-chromen-7-yl]oxy-propanamide] | IC50 (SW48 (colon)): 1 to 10 µM; IC50 (HRT-18 (colon)): ≤ 0.1 µM; IC50 (CA-46 (lymphoma)): 0.1 to 1 µM; IC50 (NCI-H596 (lung)): 1 to 10 µM; IC50 (SW403 (colon)): 0.1 to 1 µM; IC50 (HEC-59 (endometrial)): > 10 µM; IC50 (NCI-H23 (lung)): 1 to 10 µM; sensitivity of the cell line (in words) (NCI-H23 (lung)): moderate sensitivity; IC50 (NCI-H1299 (lung)): 0.1 to 1 µM; IC50 (SW948 (colon)): 0.1 to 1 µM |
| < 10 | < 20 | CC(Oc1ccc2c(-c3ccccc3Cl)cc(=O)oc2c1)C(=O)N1CCCC(C)(C(=O)O)C1 (stereo not shown) [Compound 54, 1-[2-[4-(2-chlorophenyl)-2-oxo-chromen-7-yl]oxypropanoyl]-3-methyl-piperidine-3-carboxylic acid] | – |
| < 10 | < 20 | Cc1ccccc1-c1cc(=O)oc2cc(OC(C)C(=O)N3CCCC(C(=O)O)C3)ccc12 (stereo not shown) [Compound 8, 1-[2-[4-(o-tolyl)-2-oxo-chromen-7-yl]oxypropanoyl]piperidine-3-carboxylic acid] | – |
| < 10 | < 20 | CC(Oc1ccc2c(-c3ccccc3Cl)cc(=O)oc2c1)C(=O)N1CCCC(C(=O)O)C1 (stereo not shown) [Compound 9, 1-[2-[4-(2-chlorophenyl)-2-oxo-chromen-7-yl]oxypropanoyl]piperidine-3-carboxylic acid] | – |
| < 10 | < 20 | CNS(=O)(=O)C1CCCN(C(=O)C(C)Oc2ccc3c(-c4ccccc4C)cc(=O)oc3c2)C1 (stereo not shown) [Compound 18, N-methyl-1-[2-[4-(o-tolyl)-2-oxo-chromen-7-yl]oxypropanoyl]piperidine-3-sulfonamide] | – |
| 10 to 50 | 20 to 100 | CCNC(=O)C(C)Oc1ccc2c(-c3ccccc3C)cc(=O)oc2c1 (stereo not shown) [Compound 85, N-ethyl-2-[4-(o-tolyl)-2-oxo-chromen-7-yl]oxy-propanamide] | – |
| < 10 | 20 to 100 | CC(Oc1ccc2c(-c3ccccc3Cl)cc(=O)oc2c1)C(=O)N1CCCC(S(C)(=N)=O)C1 (stereo not shown) [Compound 79, 4-(2-chlorophenyl)-7-[1-methyl-2-[3-(methylsulfonimidoyl)-1-piperidyl]-2-oxo-ethoxy]chromen-2-one] | – |
| < 10 | < 20 | Cc1ccccc1-c1cc(=O)oc2cc(O[C@H](C)C(=O)N3CCC[C@H](C(=O)O)C3)ccc12 [Compound 27, (3S)-1-[(2R)-2-[4-(o-tolyl)-2-oxo-chromen-7-yl]oxypropanoyl]piperidine-3-carboxylic acid] | – |

Second part, the molecule before the results:

| Structure (SMILES) | IC50 [2] [nM] | IC50 [3] [nM] | also measured |
| --- | --- | --- | --- |
| CNC(=O)c1cc(Oc2ccc(NC(=O)Nc3ccc(Cl)c(C(F)(F)F)c3)cc2)ccn1 [Sorafenib, reference compound] | – | – | body weight loss [1]: severe body weight loss |
| CC(Oc1ccc2c(-c3ccc(F)cc3Cl)cc(=O)oc2c1)C(=O)N1CCC[C@H](C(=O)O)C1 (stereo partly drawn) [Compound 47, (3S)-1-(2-((4-(2-chloro-4-fluorophenyl)-2-oxo-2H-chromen-7-yl)oxy)propanoyl)piperidine-3-carboxylic acid] | < 10 | < 20 | IC50 (SW48 (colon)): 0.1 to 1 µM; IC50 (HRT-18 (colon)): ≤ 0.1 µM; IC50 (CA-46 (lymphoma)): 0.1 to 1 µM; IC50 (NCI-H596 (lung)): 1 to 10 µM; IC50 (SW403 (colon)): 0.1 to 1 µM; IC50 (HEC-59 (endometrial)): > 10 µM; IC50 (NCI-H23 (lung)): > 10 µM; sensitivity of the cell line (in words) (NCI-H23 (lung)): resistant; IC50 (NCI-H1299 (lung)): 0.1 to 1 µM; IC50 (SW948 (colon)): 0.1 to 1 µM |
| CCC(Oc1ccc2c(-c3ccccc3Cl)cc(=O)oc2c1)C(=O)N1CCC[C@H](C(=O)O)C1 (stereo partly drawn) [Compound 110, (3S)-1-[2-[4-(2-chlorophenyl)-2-oxo-chromen-7-yl]oxybutanoyl]piperidine-3-carboxylic acid] | < 10 | < 20 | – |
| C[C@@H](Oc1ccc2c(-c3ccc(F)cc3Cl)cc(=O)oc2c1)C(=O)N1CCC[C@H](C(=O)OC(C)(C)C)C1 [Compound 118, tert-butyl (3S)-1-[(2R)-2-[4-(2-chloro-4-fluoro-phenyl)-2-oxo-chromen-7-yl]oxypropanoyl] piperidine-3-carboxylate] | 50 to 500 | 20 to 100 | – |
| CC(Oc1ccc2c(-c3ccc(F)cc3Cl)cc(=O)oc2c1)C(=O)N1CCCC(C)(C(=O)O)C1 (stereo not shown) [Compound 37, 1-[2-[4-(2-chloro-4-fluoro-phenyl)-2-oxo-chromen-7-yl]oxypropanoyl]-3-methyl-piperidine-3-carboxylic acid] | < 10 | < 20 | – |
| C[C@@H](Oc1ccc2c(-c3ccc(F)cc3Cl)cc(=O)oc2c1)C(=O)Nc1ccc(C(=O)O)cn1 [Compound 155, 6-[[(2R)-2-[4-(2-chloro-4-fluoro-phenyl)-2-oxo-chromen-7-yl]oxypropanoyl]amino]pyridine-3-carboxylic acid] | < 10 | < 20 | – |
| CC(Oc1ccc2c(-c3ccccc3Cl)cc(=O)oc2c1)C(=O)N1CCC(CC(=O)O)CC1 (stereo not shown) [Compound 59, 2-[1-[2-[4-(2-chlorophenyl)-2-oxo-chromen-7-yl]oxypropanoyl]-4-piperidyl]acetic acid] | 10 to 50 | 20 to 100 | – |
| Cc1ccsc1-c1cc(=O)oc2cc(O[C@H](C)C(=O)N3CCC[C@H](C(=O)O)C3)ccc12 [Compound 174, (3S)-1-[(2R)-2-[4-(3-methyl-2-thienyl)-2-oxo-chromen-7-yl]oxypropanoyl]piperidine-3-carboxylic acid] | < 10 | 20 to 100 | – |
| Cc1ccccc1-c1cc(=O)oc2cc(OC(C)(C)C(=O)NC(C)C)ccc12 [Compound 115, N-isopropyl-2-methyl-2-[4-(o-tolyl)-2-oxo-chromen-7-yl]oxy-propanamide] | 10 to 50 | 100 to 1000 | – |
| COC(=O)c1cccc(NC(=O)[C@@H](C)Oc2ccc3c(-c4ccc(F)cc4Cl)cc(=O)oc3c2)n1 [Compound 149, methyl 6-[[(2R)-2-[4-(2-chloro-4-fluoro-phenyl)-2-oxo-chromen-7-yl]oxypropanoyl]amino]pyridine-2-carboxylate] | 50 to 500 | 20 to 100 | – |
